Where a SMILES comes first, the peptide text is derived from it. [ ]: non-standard residue; d: D form. dNMeF = CN[C@H](Cc1ccccc1)C(=O)O
Tests used:
DMS79 cells [1] = assay: Annexin V conjugate / SYTOX Blue flow cytometric analysis of apoptosis; assay type: cell-based, human; settings: 24 h, n = 3
Protocol: The novel potent N^ind-butylated peptide, 16, and its unmodified version 1 [26] were incubated for 24 h with DMS79 cells and double stained using Annexin V Fluor® 555 (AnnV) conjugate and SYTOX® Blue (SyB) dead cell stain [29], [32]. The former stain binds to phosphatidyl serine (PS) residues that become exposed at the outer surface of the plasma membrane of cells undergoing apoptosis. DMS79 cell line was selected as a variant cell line model more resistant to chemotherapy since it is established from a SCLC patient treated with three different chemotherapeutics and radiation therapy. Peptide 16 was the most cytotoxic against this cell line (Table 1).
Quantitative assessment of apoptosis was evaluated at low (2 μM) and high (6 μM) peptide concentrations using flow cytometry. A bar-chart (Fig. 6) presents the levels of cells classified into four stages; live cells (AnnV-/SyB-), early apoptotic cells (AnnV+/SyB-), late apoptotic cells (AnnV+/SyB+) and necrotic cells (AnnV-/SyB+). Dot blots are presented in the SD (Fig. S37). […] In contrast, the singly butylated peptide (16) caused highly significant (P < 0.0005) apoptosis in a concentration dependent manner. Even at a low concentration of peptide (2 μM), a small increase (P < 0.05) of early apoptotic cells was observed relative to the control sample.
The experiment was performed according to manufacturer's instructions. Briefly, DMS79 cells were seeded in 12-well plates at a seeding density of 1 × 10^5 cells/well/1980 μl complete medium. Negative control (untreated), peptides at final well concentrations of 2 and 6 μM were prepared and incubated as the above conditions stated in Section 5.1 for 24 h (total volume of wells was 2 ml). The contents of the wells were then carefully transferred into Eppendorf® tubes and centrifuged for 5 min at 500 rpm and the media discarded. Cells pellets were washed with cold PBS. Cells were gently re-suspended in 100 μl annexin-binding buffer followed by the addition of 5 μl of the Annexin V conjugate (Alexa Fluor® 555) and 0.5 μl of dead cell stain (SYTOX® Blue). Tubes were left for 10 min at RT, then 400 μl of annexin-binding buffer were added and samples were analysed on a flow cytometer (BD Biosciences - LSR Fortessa; Diva 8.0.1 software; Annexin V conjugate was excited with 561 nm laser and fluorescence measured using a 586/15 nm bandpass filter; dead cell stain was excited with 405 nm laser and fluorescence measured using 450/50 nm bandpass filter). Assays were repeated three independent times.

H69 and DMS79 cells = system: H69 and DMS79 cells; parameters: method as in PMID 30108771; settings: range over both cell lines; read-out: IC50 values in the range against H69 and DMS79; cited from earlier work
H69 cells = system: H69 cells; parameters: method as in PMID 30108771; settings: treatment for 48 h; obtained previously; read-out: IC50 ± SE, H69 Cells; cited from earlier work
DMS79 cells [2] = system: DMS79 cells; parameters: method as in PMID 30108771; settings: treatment for 48 h; obtained previously; read-out: IC50 ± SE, DMS79 Cells; cited from earlier work

Molecule | % events, early apoptotic cells (AnnV+/SyB-) (DMS79 cells [1]; DMS79, 2 μM) [%] | % events, late apoptotic cells (AnnV+/SyB+) (DMS79 cells [1]; DMS79, 2 μM) [%] | % events, live cells (AnnV-/SyB-) (DMS79 cells [1]; DMS79, 2 μM) [%] | % events, necrotic cells (AnnV-/SyB+) (DMS79 cells [1]; DMS79, 2 μM) [%] | % events, early apoptotic cells (AnnV+/SyB-) (DMS79 cells [1]; DMS79, 6 μM) [%] | % events, late apoptotic cells (AnnV+/SyB+) (DMS79 cells [1]; DMS79, 6 μM) [%] | % events, live cells (AnnV-/SyB-) (DMS79 cells [1]; DMS79, 6 μM) [%] | % events, necrotic cells (AnnV-/SyB+) (DMS79 cells [1]; DMS79, 6 μM) [%] | IC50 (H69 and DMS79 cells) [µM] | IC50 (H69 cells) [µM] | IC50 (DMS79 cells [2]) [µM]
CN[C@H](Cc1ccccc1)C(=O)N[C@H](Cc1c[nH]c2ccccc12)C(=O)N[C@@H](Cc1ccccc1)C(=O)N[C@H](Cc1c[nH]c2ccccc12)C(=O)N[C@@H](CC(C)C)C(N)=O [Peptide 1, DMePhe-DTrp-Phe-DTrp-Leu-NH2] (H-[dNMeF][dW]F[dW]L-NH2; N-terminus assumed) | 6.2 | 23.9 | 67.6 | 2.3 | 6.6 | 22.9 | 68.3 | 2.2 | 23 to 31 | – | –
[Arg^6,D-Trp^7,9,MePhe^8]SP (6–11) [SPG] | – | – | – | – | – | – | – | – | – | > 30 | > 30
